In US7816353B2 (Exelixis, Inc., priority 2003, dated 2010):

Biological target: T1, p70S6K (Homo sapiens, UniProt P23443, T412E)
T1 construct: human p70S6 kinase domain residues 1-421, containing a T412E mutation; made in house
Experiment: p70S6 Kinase Assay (Luciferase-Coupled Chemiluminescent Kinase assay, LCCA)
Format: biochemical
Details: human p70S6 kinase domain residues 1-421, T412E; 5 μM ATP; read-out: p70S6K IC50
Method: Kinase activity and compound inhibition are investigated using one or more of the three assay formats described below. The ATP concentrations for each assay are selected to be close to the Michaelis-Menten constant (KM) for each individual kinase. Dose-response experiments are performed at 10 different inhibitor concentrations in a 384-well plate format. […] Y=Min+(Max−Min)/(1+(X/IC50)^H) Equation (2) p70S6 Kinase Assay
Biochemical activity of p70S6 kinase was assessed using a Luciferase-Coupled Chemiluminescent Kinase assay (LCCA) format. Kinase activity was measured as the percent ATP remaining following the kinase reaction. Remaining ATP was detected by luciferase-luciferin-coupled chemiluminescence. […] The mixture is incubated at ambient temperature for 2 hours after which 20 μL luciferase-luciferin mix is added and the chemiluminescent signal read using a Wallac Victor^2 reader.

T1 sequence (P23443 1-421 T412E): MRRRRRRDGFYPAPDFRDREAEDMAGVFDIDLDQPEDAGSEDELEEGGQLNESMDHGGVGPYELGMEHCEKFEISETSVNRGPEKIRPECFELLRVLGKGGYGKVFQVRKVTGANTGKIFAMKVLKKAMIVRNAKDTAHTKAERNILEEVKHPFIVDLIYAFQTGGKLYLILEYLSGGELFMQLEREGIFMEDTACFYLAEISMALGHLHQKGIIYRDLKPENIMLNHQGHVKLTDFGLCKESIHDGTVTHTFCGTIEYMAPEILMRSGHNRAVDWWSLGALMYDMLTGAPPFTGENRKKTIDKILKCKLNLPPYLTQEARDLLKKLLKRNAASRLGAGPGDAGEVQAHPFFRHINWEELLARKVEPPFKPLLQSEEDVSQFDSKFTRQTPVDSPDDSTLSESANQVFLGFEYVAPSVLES

IC50, > 2000 nM:
CCOC(=O)CN(NC(=O)Nc1cccc(C(F)(F)F)c1)c1nc(N)nc(SC)c1C#N [Example 95, ethyl[1-[2-amino-5-cyano-6-(methylthio)pyrimidin-4-yl]-2-({[3-(trifluoromethyl)phenyl]amino}carbonyl)hydrazino]acetate]
CSc1nc(N)nc(N(C)NC(=O)Nc2cccc(C(F)(F)F)c2)c1C#N [Example 96, 2-[2-amino-5-cyano-6-(methylthio)pyrimidin-4-yl]-2-methyl-N-[3-(trifluoromethyl)phenyl]hydrazinecaboxamide]
Cc1nc2oc(C(=O)Nc3cccc(C(F)(F)F)c3)c(N)c2c(C)c1N [Example 97, 3,5-diamino-4,6-dimethyl-N-[3-(trifluoromethyl)phenyl]furo[2,3-b]pyridine-2-carboxamide]
Cc1nc2oc(C(=O)Nc3cccc(C(F)(F)F)c3)c(N)c2c(C)c1[N+](=O)[O-] [Example 98, 3-amino-4,6-dimethyl-5-nitro-N-[3-(trifluoromethyl)phenyl]furo[2,3-b]pyridine-2-carboxamide]
C[C@H](Nc1nc(N)nc(O)c1C#N)C(=O)Nc1cccc(C(F)(F)F)c1 [Example 99, N^2-(2-amino-5-cyano-6-hydroxypyrimidin-4-yl)-N-[3-(trifluoromethyl)phenyl]-L-alaninamide]
C[C@H](Nc1nc(N)nc(OCCN(C)C)c1C#N)C(=O)Nc1cccc(C(F)(F)F)c1 [Example 102, N^2-(2-amino-5-cyano-6-{[2-(dimethylamino)ethyl]oxy}pyrimidin-4-yl)-N-[3-(trifluoromethyl)phenyl]-L-alaninamide]
CSc1nc(N)nc(N[C@@H](CCCCNC(=O)OC(C)(C)C)C(=O)Nc2cccc(C(F)(F)F)c2)c1C#N [Example 103, N^2-[2-amino-5-cyano-6-(methylthio)pyrimidin-4-yl]-N-6-{[(1,1-dimethylethyl)oxy]carbonyl}-N-[3-(trifluoromethyl)phenyl]-L-lysinamide]
CSc1nc(N)nc(N(C)[C@@H](C)c2nc3ccc(C(F)(F)F)cc3[nH]2)c1C#N [Example 104, 2-amino-4-(methylthio)-6-(methyl{(1S)-1-[6-(trifluoromethyl)-1H-benzimidazol-2-yl]ethyl}amino)pyrimidine-5-carbonitrile]
CSc1nc(N)nc(N(CCC2CCOCC2)CC(=O)Nc2cccc(C(F)(F)F)c2)c1C#N [Example 105, N^2-[2-amino-5-cyano-6-(methylthio)pyrimidin-4-yl]-N^2-[2-(tetrahydro-2H-pyran-4-4yl)ethyl]-N-[3-(trifluoromethyl)phenyl]glycinamide]
CCN(CC)CCNc1cc(NC(=O)[C@H](C)Nc2nc(N)nc(SC)c2C#N)cc(C(F)(F)F)c1 [Example 106, N^2-[2-amino-5-cyano-6-(methylthio)pyrimidin-4-yl]-N-[3-{[2-(diethylamino)ethyl]amino}-5-(trifluoromethyl)phenyl]-L-alaninamide]
CSc1nc(N)nc(N[C@@H](C)c2nc3ccc(C(F)(F)F)cc3[nH]2)c1C#N [Example 107, 2-amino-4-(methylthio)-6-({(1S)-1-[6-(trifluoromethyl)-1H-benzimidazol-2-yl]ethyl}amino)pyrimidine-5-carbonitrile]
C[C@H](Nc1nc(N)nc(N[C@@H](C)C(=O)Nc2cccc(C(F)(F)F)c2)c1C#N)C(=O)Nc1cccc(C(F)(F)F)c1 [Example 108, 2-{2-amino-5-cyano-6[1-(3-trifluoromethyl-phenylcarbamoyl)-1S-ethylamino]-pyrimidin-4-ylamino}N-(3-trifluoromethyl-phenyl)-2S-propionamide]
CSc1nc(N)nc(N(C)CC(=O)Nc2cccc(C)c2)c1C#N [Example 109, N^2-[2-amino-5-cyano-6-(methylthio)pyrimidin-4-yl]-N^2-methyl-N-(3-methylphenyl)glycinamide]
